The supplement of paper PMC11208160

Assay: recombinant barcode read abundance after kanamycin selection (control-corrected) (log10(CPM+1)); higher = more efficient recombination; sequences stand for … in AGTGCAGAGAAAATCGGCCAGTTTTCTCTGCCTGCAGTCCGCATGCCGT…AGATTTATGCAGCGGACTGCCTTTCTCCCAAAGTGATAAACCGGACAGTATCATGGACCGGTTTTCCCGGTAATCCGTATTTGCAAGGTTGGTTTCACT; site = the 11-nt target
How it was run: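 Recombination efficiency comes from barcode counts at recombinant junctions, converted to counts per million, averaged and corrected against the control. Values appear as log10(CPM+1). They were obtained from a pooled E. coli screen in which each oligo paired a target with an IS621 bridge RNA target-binding loop, and cells were plated in duplicate on chloramphenicol/ampicillin LB agar or on chloramphenicol/ampicillin/kanamycin with 0.1 mM IPTG.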
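Note: IS621 recombinase and bridge RNA in Escherichia coli cells.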

Sequence	recombinant barcode read abundance (log10)
CGGTCTACTTGGGTTCTAACCTGTTGCCT (site CAGTCTACTAG)	0.0894
GGCAGGTCTTGGGTTCTAACCTGTTGCTT (site GGCAGGTCTAA)	0.795
CATGTGCCTTGGGTTCTAACCTGTTGCCT (site TATGCGCCTAG)	0.329
CCATCTCCTTGGGTTCTAACCTGTTGCCT (site ACATCTCCTAG)	0.0982
GGTCTAACTTGGGTTCTAACCTGTTGCCT (site GGTCCAACTAG)	0.631
GACATCTCTTGGGTTCTAACCTGTTGCCT (site GACATCACTAG)	0.105
GAGCAAACTTGGGTTCTAACCTGTTGCCT (site GAGCAAACTAG)	1.2
CTAATTACTTGGGTTCTAACCTGTTGCCT (site CTAGTTACTAG)	0.159
CTGGCAGCTTGGGTTCTAACCTGTTGCCT (site ACAAACCCTTA)	0.241
AGTCCTTCTTGGGTTCTAACCTGTTGCAT (site CGTCCTTCTAG)	0.0721
GACTACCCTTGGGTTCTAACCTGTTGCCT (site GACTACCCTAG)	2.2
CTCGTAGCTTGGGTTCTAACCTGTTGCCT (site CTCGTAGCTAG)	0.651
CCTTCCACTTGGGTTCTAACCTGTTGCCT (site CCTTCCACTAG)	0.285
CACCACTCTTGGGTTCTAACCTGTTGCCT (site TACCACTCTAG)	0.195
AGTCTCCCTTGGGTTCTAACCTGTTGCCT (site AGGCTCCCTAG)	0.0232
AAACTCGCTTGGGTTCTAACCTGTTGCCT (site AAAATCTCTAG)	0.322
GACGGCTCTTGGGTTCTAACCTGTTGCCT (site GCCGGCTCTAG)	0.365
GACTGGTCTTGGGTTCTAACCTGTTGCAT (site GACTGGTCTAG)	0.969

Sequence	recombinant barcode read abundance (log10)
CTGGGGTCTTGGGTTCTAACCTGTTGCTT (site GACTAAGCTCC)	0.105
CGAGTCCCTTGGGTTCTAACCTGTTGCAG (site ATCTAAACTAG)	0.137
TGCGAGTCTTGGGTTCTAACCTGTTGCGT (site TTCGAGTCTCC)	0.0688
CAAGTAGCTTGGGTTCTAACCTGTTGCCT (site CAAGTAGCTAG)	0.591
GGGGCCTCTTGGGTTCTAACCTGTTGCTG (site GGAGCCTCTGA)	0.0595
TGGCTAGCTTGGGTTCTAACCTGTTGCCT (site TGACTAGCTAG)	0.052
TGCGGAGCTTGGGTTCTAACCTGTTGCCT (site TGCCGACCTAG)	0.163
TGCGTGTCTTGGGTTCTAACCTGTTGCTG (site TGCGTGTCTCA)	1.6
TCCGTATCTTGGGTTCTAACCTGTTGCAG (site TCCGTATCTCT)	1.05
ACCGAGTCTTGGGTTCTAACCTGTTGCCT (site ATCGAGTCTAG)	0.387
GTGAACTCTTGGGTTCTAACCTGTTGCCT (site GTTAACTCTAG)	0.542
AAGAGAGCTTGGGTTCTAACCTGTTGCCT (site AAGAGAGCTAG)	1.91
CTTCGTCCTTGGGTTCTAACCTGTTGCTT (site CTTCGTCCTAT)	0.541
AATGCTACTTGGGTTCTAACCTGTTGCCA (site AAAACTACTTG)	0.127
TCTGGGGCTTGGGTTCTAACCTGTTGCCT (site ACTGGGGCTTG)	0.0588
GCAATGTCTTGGGTTCTAACCTGTTGCCT (site GGAATGTCTAG)	0.239
GTGAACTCTTGGGTTCTAACCTGTTGCCT (site GTGAACTCTAG)	1.85
GAAGGGACTTGGGTTCTAACCTGTTGCCT (site GCAGGGACTAG)	0.236
